ChEMBL document CHEMBL5107989, “Design, synthesis and activity evaluation of isopropylsulfonyl-substituted 2,4- diarylaminopyrimidine derivatives as FAK inhibitors for the potential treatment of pancreatic cancer” (Eur J Med Chem, 2022)

Key:
ASPC1 = test: cells; conditions: Homo sapiens, ASPC1, 72 h
Description: Antiproliferative activity against human ASPC1 cells harboring KRAS,TP53,CDKN2A and DPC4/SMAD4 mutations assessed as inhibition of cell growth incubated for 72 hrs by CCK-8 assay

[1] = Cytotoxicity against human L02 cells assessed as inhibition of cell growth incubated for 72 hrs by CCK-8 assay; format: toxicity, cell-based
Raji = test: cells; conditions: Homo sapiens, 72 h
Description: Antiproliferative activity against human Raji cells assessed as inhibition of cell growth incubated for 72 hrs by CCK-8 assay

KM3/BTZ = test: cells; conditions: Homo sapiens, 72 h
Description: Antiproliferative activity against bortezomib- resistant human KM3/BTZ cells assessed as inhibition of cell growth incubated for 72 hrs by CCK-8 assay

MIA PaCa-2 = test: cells; conditions: Homo sapiens, MIA PaCa-2, 72 h
Description: Antiproliferative activity against human MIA PaCa-2 cells harboring KRAS,TP53,CDKN2A and DPC4/SMAD4 mutations assessed as inhibition of cell growth incubated for 72 hrs by CCK-8 assay

NCI-H1975 = test: cells; conditions: Homo sapiens, NCI-H1975, 72 h
Description: Antiproliferative activity against gefitinib-resistant human NCI-H1975 cells assessed as inhibition of cell growth incubated for 72 hrs by CCK-8 assay

Focal adhesion kinase 1 = Focal adhesion kinase 1 (Homo sapiens, UniProt Q05397); test: Inhibition of recombinant human FAK (393 to 698 residues) using poly (4:1 Glu, Tyr) peptide as substrate incubated for 60 mins in presence of ATP by ADP-Glo reagent based luminescent assay
Chain of Focal adhesion kinase 1 (Q05397 whole entry, the tested form may be a part): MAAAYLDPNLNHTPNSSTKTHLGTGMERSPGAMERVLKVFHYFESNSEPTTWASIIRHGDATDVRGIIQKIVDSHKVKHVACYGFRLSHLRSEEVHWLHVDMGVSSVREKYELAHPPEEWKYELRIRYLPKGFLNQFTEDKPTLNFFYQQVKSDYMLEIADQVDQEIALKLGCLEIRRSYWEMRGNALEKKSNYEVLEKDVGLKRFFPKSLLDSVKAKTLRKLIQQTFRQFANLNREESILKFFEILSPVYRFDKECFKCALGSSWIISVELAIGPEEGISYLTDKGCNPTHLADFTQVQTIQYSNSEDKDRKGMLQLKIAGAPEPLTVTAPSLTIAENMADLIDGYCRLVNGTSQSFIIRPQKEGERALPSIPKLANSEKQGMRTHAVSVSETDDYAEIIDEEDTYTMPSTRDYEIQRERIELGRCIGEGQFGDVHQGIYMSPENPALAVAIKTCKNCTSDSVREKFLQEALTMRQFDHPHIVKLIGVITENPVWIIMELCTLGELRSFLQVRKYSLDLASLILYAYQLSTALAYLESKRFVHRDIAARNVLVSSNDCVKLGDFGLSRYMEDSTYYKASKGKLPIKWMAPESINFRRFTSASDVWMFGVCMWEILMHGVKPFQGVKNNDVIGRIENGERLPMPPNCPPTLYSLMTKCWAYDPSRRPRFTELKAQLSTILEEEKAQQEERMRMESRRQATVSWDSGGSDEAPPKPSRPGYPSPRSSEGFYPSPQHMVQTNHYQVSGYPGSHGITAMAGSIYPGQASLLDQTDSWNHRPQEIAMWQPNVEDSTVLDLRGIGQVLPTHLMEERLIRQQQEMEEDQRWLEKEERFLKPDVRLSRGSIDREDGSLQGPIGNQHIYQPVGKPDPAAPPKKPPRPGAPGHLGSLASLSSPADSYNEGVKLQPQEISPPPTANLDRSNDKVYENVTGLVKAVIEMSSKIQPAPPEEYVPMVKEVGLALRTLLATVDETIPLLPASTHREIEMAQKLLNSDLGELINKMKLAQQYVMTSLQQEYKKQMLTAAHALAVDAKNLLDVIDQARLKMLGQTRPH

IC50 (ASPC1) | IC50 (Raji) | IC50 (KM3/BTZ) | IC50 (MIA PaCa-2) | IC50 (NCI-H1975) | IC50 (Focal adhesion kinase 1) | Compound | IC50 at 72 h [1]
4.82 µM | > 10 µM | 4.39 µM | 5.23 µM | > 10 µM |  | CNC(=O)c1ccccc1Nc1nc(Nc2ccc(N3CCOCC3)cc2OC)ncc1Cl | 5.21 µM
0.735 µM | 2.21 µM | 2.49 µM | 0.452 µM | 3.51 µM |  | CC(C)S(=O)(=O)c1ccccc1Nc1nc(Nc2ccc(CN3CCSCC3)cc2)ncc1Cl | 1.14 µM
6.98 µM | > 10 µM | 2.89 µM | 1.23 µM | 7.86 µM |  | CC(C)S(=O)(=O)c1ccccc1Nc1nc(Nc2ccc(CN3CCC(C(=O)NCCCCCC(=O)NO)CC3)cc2)ncc1Cl | 2.99 µM
0.139 µM | 1.22 µM | 0.159 µM | 0.235 µM | 6.29 µM |  | CC(C)S(=O)(=O)c1ccccc1Nc1nc(Nc2ccc(CN3CCC(CO)CC3)cc2)ncc1Cl | 0.192 µM
1.92 µM | > 10 µM | 9.77 µM | 0.622 µM | 7.42 µM |  | COC(=O)CCCCCNC(=O)C1CCN(c2ccc(Nc3ncc(Cl)c(Nc4ccccc4S(=O)(=O)C(C)C)n3)cc2)CC1 | 1.98 µM
0.394 µM | > 10 µM | 2.58 µM | 1.91 µM | 8.2 µM |  | CCC(C)C(CO)NC(=O)C1CCN(Cc2ccc(Nc3ncc(Cl)c(Nc4ccccc4S(=O)(=O)C(C)C)n3)cc2)CC1 (stereo not given) | 1.39 µM
2.98 µM | 1.67 µM | > 10 µM | 4.71 µM | 2.95 µM | 0.000315 µM | CCOP(=O)(Cc1ccc(Nc2ncc(Cl)c(Nc3ccccc3S(=O)(=O)C(C)C)n2)cc1)OCC | 7.93 µM
0.916 µM | 1.48 µM | 3.68 µM | 2.12 µM | 2.71 µM |  | CC(C)S(=O)(=O)c1ccccc1Nc1nc(Nc2ccc(N3CCC(C(=O)O)CC3)cc2)ncc1Cl | 1.51 µM
0.472 µM | > 10 µM | 1.02 µM | 1.13 µM | 2.81 µM |  | CC(C)S(=O)(=O)c1ccccc1Nc1nc(Nc2ccc(CN3CCC(C(=O)O)CC3)cc2)ncc1Cl | 1.27 µM
3.68 µM | 3.25 µM | 2.16 µM | 5.05 µM | 7.51 µM |  | CC(C)S(=O)(=O)c1ccccc1Nc1nc(Nc2ccc(NC(=O)CN3CCC(C(=O)O)CC3)cc2)ncc1Cl | 2.32 µM
0.451 µM | > 10 µM | > 10 µM | 0.0126 µM | 9.64 µM |  | CCOC(=O)C1CCN(c2ccc(Nc3ncc(Cl)c(Nc4ccccc4S(=O)(=O)C(C)C)n3)cc2)CC1 | 0.981 µM
0.288 µM | > 10 µM | 0.497 µM | 0.459 µM | 0.494 µM |  | CC(C)S(=O)(=O)c1ccccc1Nc1nc(Nc2ccc(CN3CCC(C(=O)NCCO)CC3)cc2)ncc1Cl | 0.978 µM
0.295 µM | 2.96 µM | 0.262 µM | 7.09 µM | 2.08 µM |  | CCOC(=O)C1CCN(Cc2ccc(Nc3ncc(Cl)c(Nc4ccccc4S(=O)(=O)C(C)C)n3)cc2)CC1 | 0.453 µM
3.52 µM | > 10 µM | > 10 µM | 4.75 µM | 2.88 µM |  | CC(C)S(=O)(=O)c1ccccc1Nc1nc(Nc2ccc(SCCCN3CCOCC3)cc2)ncc1Cl | 8.65 µM
0.989 µM | 1.32 µM | 2.31 µM | 5.27 µM | 2.92 µM |  | CCOC(=O)C1CCN(CC(=O)Nc2ccc(Nc3ncc(Cl)c(Nc4ccccc4S(=O)(=O)C(C)C)n3)cc2)CC1 | 1.22 µM
3.18 µM | > 10 µM | > 10 µM | 1.23 µM | > 10 µM |  | CC(C)S(=O)(=O)c1ccccc1Nc1nc(Nc2ccc(NC(=O)CN3CCC(C(=O)NCCCCCC(=O)NO)CC3)cc2)ncc1Cl | 5.05 µM
5.94 µM | > 10 µM | > 10 µM | 1.23 µM | 3.82 µM |  | COC(=O)CCCCCNC(=O)C1CCN(CC(=O)Nc2ccc(Nc3ncc(Cl)c(Nc4ccccc4S(=O)(=O)C(C)C)n3)cc2)CC1 | 7.01 µM
0.259 µM | 3.27 µM | 1.61 µM | 0.714 µM | 0.347 µM |  | CC(C)S(=O)(=O)c1ccccc1Nc1nc(Nc2ccc(OCC(=O)N3CCOCC3)cc2)ncc1Cl | 0.368 µM
2.39 µM | > 10 µM | > 10 µM | 1.17 µM | 4.15 µM |  | CC(C)S(=O)(=O)c1ccccc1Nc1nc(Nc2ccc(N3CCC(C(=O)NCCCCCC(=O)NO)CC3)cc2)ncc1Cl | 0.755 µM
